According to patent US20170165317A1, “METHOD FOR MITIGATING OR ALLEVIATING SYNAPTIC AND COGNITIVE DEFICITS” (Trustees of Dartmouth College, priority 2013, published 2017):

Tested on: APP/PS1 mice
Test: Contextual fear conditioning after i.c.v. infusion
Format: in vivo, mouse
Details: VO-OHpic infusion
Procedure: APP/PS1 and wild-type mice were anesthetized with isofluorane, and i.c.v. delivery cannulas (brain alzet kit III) were implanted with a stereotaxic frame (KOPF Instruments) at the following coordinates according to the bregma: AP, −0.5 mm; ML, 1 mm; and DV, −2.2 mm. Osmotic minipumps (Alzet) were filled with artificial cerebrospinal fluid (aCSF) with or without PTEN inhibitor VO-OHpic (2.5 μM) and equilibrated in 0.9% NaCl at 37° C. for 48 hours. They were attached to the i.c.v. cannula tubing and subcutaneously implanted at the back. After 21 days, behavioral testing was started as described herein. […]
Fear conditioning. […] The animals' behavior was scored by an observer blind to the treatment condition. Using a time-sampling procedure every 2 seconds, each mouse was scored blindly as either freezing or active at the instant the sample was taken. […]
It was posited that if early Aβ-induced cognitive impairment results from a general synaptic bias toward LTD events (Selkoe (2002) Science 298:789-791), dampening this form of synaptic plasticity might prevent cognitive decay. Therefore, it was determined whether in vivo inhibition of PTEN, a lipid phosphatase that is involved in LTD (Jurado, et al. (2010) EMBO J. 29:2827-2840), would rescue cognitive deficits in APP/PS1 mice. […]

Q: With O=C(O)c1ncccc1O.O=C(O)c1ncccc1O.[O]=[V][O-] [VO-OHpic] as the compound, how does the “contextual fear conditioning performance (percentage freezing to the context)” value (APP/PS1 mice, P=0.002) read?
A: significantly improved their performance

Q: What about the “contextual fear conditioning performance (percentage freezing to the context)” value (wild-type mice) of the same compound?
A: without altering
